Measured values taken from ChEMBL document CHEMBL3758098, “3-(Dipropylamino)-5-hydroxybenzofuro[2,3-f]quinazolin-1(2H)-one (DPA-HBFQ-1) plays an inhibitory role on breast cancer cell growth and progression” (Eur J Med Chem, 2016).
Activity calls are given as the source filed them. The rule behind the calls is not given here.

Columns and labels:
MCF7 [1] = test: Induction of apoptosis in human MCF7 cells assessed as DNA fragmentation at 1 uM after 48 hrs by DNA laddering assay; type: functional, cell-based
[2] = biological target: Cellular tumor antigen p53 (Homo sapiens) (UniProt P04637); test: Activation of p53 in human MCF7 cells assessed as upregulation of […]/WAF1 gene expression at 0.1 to 1 uM after 24 hrs by dual luciferase reporter gene assay; type: cell-based
MDA-MB-231 [3] = test: Induction of p53 consensus sequences deficient […]/WAF1 promoter activity in human MDA-MB-231 cells at 0.1 to 1 uM after 24 hrs by dual luciferase reporter gene assay; type: cell-based
[4] = biological target: DNA topoisomerase 2-alpha (Homo sapiens) (UniProt P11388); test: Inhibition of human topoisomerase 2 assessed as decatenation of kDNA after 30 mins by agarose gel electrophoresis
MCF7 [5] = test: Cytotoxicity against human MCF7 cells assessed as growth inhibition at 1 uM after 5 days by MTT assay relative to vehicle-treated control; type: functional; conditions: MCF7, 120 h, read-out: GI
MDA-MB-231 [6] = test: Cytotoxicity against human MDA-MB-231 cells assessed as growth inhibition at 1 uM after 5 days by MTT assay relative to vehicle-treated control; type: functional; conditions: MDA-MB-231, 120 h, read-out: GI
[7] = Cytotoxicity against human MCF10A cells assessed as growth inhibition at 1 uM after 5 days by MTT assay relative to vehicle-treated control; type: cell-based; conditions: mcf-10a, 120 h
MCF7 [8] = test: Cytotoxicity against human MCF7 cells assessed as cell viability after 5 days by MTT assay; type: functional, cell-based; conditions: MCF7, 120 h
MDA-MB-231 [9] = test: Cytotoxicity against human MDA-MB-231 cells assessed as cell viability after 5 days by MTT assay; type: functional, cell-based; conditions: MDA-MB-231, 120 h
[10] = Cytotoxicity against human MCF10A cells assessed as cell viability after 5 days by MTT assay; type: cell-based; conditions: MCF-10A, 120 h
MCF7 [11] = test: Cytotoxicity against human MCF7 cells assessed as reduction of colony formation at 0.1 uM after 14 days by MTT staining-based anchorage-independant soft agar assay; type: functional, cell-based
MDA-MB-231 [12] = test: Cytotoxicity against human MDA-MB-231 cells assessed as reduction of colony formation at 0.1 uM after 14 days by MTT staining-based anchorage-independant soft agar assay; type: functional, cell-based
MCF7 [13] = test: Cytotoxicity against human MCF7 cells assessed as reduction of colony formation at 1 uM after 14 days by MTT staining-based anchorage-independant soft agar assay; type: functional, cell-based
MDA-MB-231 [14] = test: Cytotoxicity against human MDA-MB-231 cells assessed as reduction of colony formation at 1 uM after 14 days by MTT staining-based anchorage-independant soft agar assay; type: functional, cell-based
[15] = Upregulation of p53 expression in human MCF10A cells at 0.1 uM after 48 hrs by Western blot analysis; type: ADME, cell-based; conditions: mcf-10a
MCF7 [16] = test: Upregulation of p53 expression in human MCF7 cells after 48 hrs by Western blot analysis; type: functional, cell-based
MDA-MB-231 [17] = test: Upregulation of p53 expression in human MDA-MB-231 cells after 48 hrs by Western blot analysis; type: functional, cell-based
[18] = Upregulation of p53 expression in human MCF10A cells at 1 uM after 48 hrs by Western blot analysis; type: ADME, cell-based; conditions: mcf-10a
[19] = biological target: Cellular tumor antigen p53 (Homo sapiens) (UniProt P04637); test: Activation of p53 in human MDA-MB-231 cells assessed as upregulation of […]/WAF1 expression after 48 hrs by Western blot analysis; type: cell-based
[20] = biological target: Cellular tumor antigen p53 (Homo sapiens) (UniProt P04637); test: Activation of p53 in human MCF7 cells assessed as upregulation of […]/WAF1 expression after 48 hrs by Western blot analysis; type: cell-based
[21] = biological target: Cellular tumor antigen p53 (Homo sapiens) (UniProt P04637); test: Activation of p53 in human MCF7 cells assessed as upregulation of […]/WAF1 mRNA expression at 0.1 uM after 12 hrs by RT-PCR analysis; type: cell-based
[22] = biological target: Cellular tumor antigen p53 (Homo sapiens) (UniProt P04637); test: Activation of p53 in human MDA-MB-231 cells assessed as upregulation of […]/WAF1 mRNA expression at 0.1 uM after 12 hrs by RT-PCR analysis; type: cell-based
MDA-MB-231 [23] = test: Upregulation of p53 mRNA expression in human MDA-MB-231 cells at 0.1 to 1 uM after 12 hrs by RT-PCR analysis; type: functional, cell-based
[24] = biological target: Cellular tumor antigen p53 (Homo sapiens) (UniProt P04637); test: Activation of p53 in human MCF7 cells assessed as upregulation of […]/WAF1 mRNA expression at 1 uM after 12 hrs by RT-PCR analysis; type: cell-based
[25] = biological target: Cellular tumor antigen p53 (Homo sapiens) (UniProt P04637); test: Activation of p53 in human MDA-MB-231 cells assessed as upregulation of […]/WAF1 mRNA expression at 1 uM after 12 hrs by RT-PCR analysis; type: cell-based
[26] = biological target: Cellular tumor antigen p53 (Homo sapiens) (UniProt P04637); test: Activation of p53 in human MCF7 cells assessed as upregulation of […]/WAF1 gene expression at 0.1 uM after 24 hrs by dual luciferase reporter gene assay; type: cell-based
[27] = biological target: Cellular tumor antigen p53 (Homo sapiens) (UniProt P04637); test: Activation of p53 in human MCF7 cells assessed as upregulation of […]/WAF1 gene expression at 1 uM after 24 hrs by dual luciferase reporter gene assay; type: cell-based
[28] = biological target: Cellular tumor antigen p53 (Homo sapiens) (UniProt P04637); test: Activation of p53 in human MCF7 cells assessed as upregulation of […]/WAF1 gene expression at 1 uM by dual luciferase reporter gene assay in presence of p53 siRNA; type: cell-based
MCF7 [29] = test: Induction of p53 consensus sequences deficient […]/WAF1 promoter activity in human MCF7 cells at 0.1 uM after 24 hrs by dual luciferase reporter gene assay; type: cell-based
MCF7 [30] = test: Induction of p53 consensus sequences deficient […]/WAF1 promoter activity in human MCF7 cells at 1 uM after 24 hrs by dual luciferase reporter gene assay; type: cell-based
[31] = Induction of apoptosis in human MCF10A cells assessed as PARP proteolysis at 1 uM after 48 hrs by Western blot analysis; type: cell-based; conditions: mcf-10a
MCF7 [32] = test: Induction of apoptosis in human MCF7 cells assessed as PARP proteolysis at 1 uM after 48 hrs by Western blot analysis; type: functional, cell-based
[33] = Induction of apoptosis in human MCF10A cells assessed as DNA fragmentation at 1 uM after 48 hrs by DNA laddering assay; type: cell-based; conditions: mcf-10a
MDA-MB-231 [34] = test: Induction of apoptosis in human MDA-MB-231 cells assessed as DNA fragmentation at 1 uM after 48 hrs by DNA laddering assay; type: functional, cell-based
MCF7 [35] = test: Upregulation of p53 mRNA expression in human MCF7 cells at 0.1 to 1 uM after 12 hrs by RT-PCR analysis; type: functional, cell-based
MCF-7 TR1 [36] = test: Cytotoxicity against human MCF-7 TR1 cells assessed as reduction of cell vitality at 0.1 to 1 uM after 3 to 5 days by MTT assay; type: functional, cell-based
MCF-7 TR1 [37] = test: Cytotoxicity against human MCF-7 TR1 cells assessed as reduction of colony formation at 1 uM after 14 days by MTT staining-based anchorage-independant soft agar assay; type: functional, cell-based
[38] = Cytotoxicity against human MCF-7 TR1 cells assessed as cell colony formation after 14 days by crystal violet staining-based assay; type: functional; conditions: MCF-7 TR1, 336 h
[39] = Upregulation of p53 expression in human MCF-7 TR1 cells at 0.1 uM after 48 hrs by Western blot analysis; type: functional, cell-based
[40] = Upregulation of p53 expression in human MCF-7 TR1 cells at 1 uM after 48 hrs by Western blot analysis; type: functional, cell-based
[41] = biological target: Cellular tumor antigen p53 (Homo sapiens) (UniProt P04637); test: Activation of p53 in human MCF-7 TR1 cells assessed as upregulation of […]/WAF1 gene expression at 0.1 uM after 48 hrs by Western blot analysis; type: cell-based
[42] = biological target: Cellular tumor antigen p53 (Homo sapiens) (UniProt P04637); test: Activation of p53 in human MCF-7 TR1 cells assessed as upregulation of […]/WAF1 gene expression at 1 uM after 48 hrs by Western blot analysis; type: cell-based
MCF-7 TR1 [43] = test: Induction of apoptosis in human MCF-7 TR1 cells assessed as DNA fragmentation at 1 uM after 48 hrs by DNA laddering analysis; type: functional, cell-based
MCF-7 TR1 [44] = test: Induction of apoptosis in human MCF-7 TR1 cells assessed as PARP proteolysis at 1 uM after 48 hrs by Western blot analysis; type: functional, cell-based
[45] = biological target: T1, DNA topoisomerase 1 (Homo sapiens) (UniProt P11387); test: Inhibition of recombinant human topoisomerase 1 assessed as relaxation of supercoiled pHOT1 at 10 uM after 30 mins by agarose gel electrophoresis
T1 sequence (whole entry): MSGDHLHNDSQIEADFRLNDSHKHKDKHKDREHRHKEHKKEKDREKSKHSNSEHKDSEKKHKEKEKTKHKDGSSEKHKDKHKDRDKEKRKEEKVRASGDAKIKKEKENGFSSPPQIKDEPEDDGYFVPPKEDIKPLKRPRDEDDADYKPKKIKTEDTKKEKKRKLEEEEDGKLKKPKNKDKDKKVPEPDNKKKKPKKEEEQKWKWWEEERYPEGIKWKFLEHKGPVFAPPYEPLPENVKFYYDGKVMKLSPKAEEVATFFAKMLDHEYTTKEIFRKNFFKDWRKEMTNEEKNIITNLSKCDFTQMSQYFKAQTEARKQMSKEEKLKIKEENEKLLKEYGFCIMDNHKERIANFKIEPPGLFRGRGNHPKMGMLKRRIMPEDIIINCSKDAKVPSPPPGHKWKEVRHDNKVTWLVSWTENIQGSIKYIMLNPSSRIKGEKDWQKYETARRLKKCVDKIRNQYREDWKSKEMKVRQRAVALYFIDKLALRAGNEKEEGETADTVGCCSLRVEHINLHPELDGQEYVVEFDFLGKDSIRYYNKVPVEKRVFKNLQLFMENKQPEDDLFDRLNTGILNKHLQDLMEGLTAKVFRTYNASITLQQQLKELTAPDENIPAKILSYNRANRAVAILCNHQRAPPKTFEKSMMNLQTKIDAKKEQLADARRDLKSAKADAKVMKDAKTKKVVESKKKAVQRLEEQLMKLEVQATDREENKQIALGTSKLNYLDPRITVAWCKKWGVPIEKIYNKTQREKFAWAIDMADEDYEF

[46] = biological target: T1, DNA topoisomerase 1 (Homo sapiens); test: Inhibition of recombinant human topoisomerase 1 assessed as relaxation of supercoiled pHOT1 at 50 uM after 30 mins by agarose gel electrophoresis
Ishikawa = test: Cytotoxicity against human Ishikawa cells assessed as growth inhibition by MTT assay; type: functional, cell-based
HeLa = test: Cytotoxicity against human HeLa cells assessed as growth inhibition by MTT assay; type: functional, cell-based
HepG2 = test: Cytotoxicity against human HepG2 cells assessed as growth inhibition by MTT assay; type: functional, cell-based
[47] = Cytotoxicity against rat R2C cells assessed as growth inhibition by MTT assay; type: functional, cell-based
[48] = biological target: DNA topoisomerase 2-alpha (Homo sapiens) (UniProt P11388); conditions: 10 uM
Description: Inhibition of human topoisomerase 2 assessed as decatenation of kDNA at 10 uM after 30 mins by agarose gel electrophoresis

[49] = biological target: DNA topoisomerase 2-alpha (Homo sapiens) (UniProt P11388); conditions: 50 uM
Description: Inhibition of human topoisomerase 2 assessed as decatenation of kDNA at 50 uM after 30 mins by agarose gel electrophoresis

Chain of DNA topoisomerase 2-alpha (Homo sapiens) (P11388 whole entry): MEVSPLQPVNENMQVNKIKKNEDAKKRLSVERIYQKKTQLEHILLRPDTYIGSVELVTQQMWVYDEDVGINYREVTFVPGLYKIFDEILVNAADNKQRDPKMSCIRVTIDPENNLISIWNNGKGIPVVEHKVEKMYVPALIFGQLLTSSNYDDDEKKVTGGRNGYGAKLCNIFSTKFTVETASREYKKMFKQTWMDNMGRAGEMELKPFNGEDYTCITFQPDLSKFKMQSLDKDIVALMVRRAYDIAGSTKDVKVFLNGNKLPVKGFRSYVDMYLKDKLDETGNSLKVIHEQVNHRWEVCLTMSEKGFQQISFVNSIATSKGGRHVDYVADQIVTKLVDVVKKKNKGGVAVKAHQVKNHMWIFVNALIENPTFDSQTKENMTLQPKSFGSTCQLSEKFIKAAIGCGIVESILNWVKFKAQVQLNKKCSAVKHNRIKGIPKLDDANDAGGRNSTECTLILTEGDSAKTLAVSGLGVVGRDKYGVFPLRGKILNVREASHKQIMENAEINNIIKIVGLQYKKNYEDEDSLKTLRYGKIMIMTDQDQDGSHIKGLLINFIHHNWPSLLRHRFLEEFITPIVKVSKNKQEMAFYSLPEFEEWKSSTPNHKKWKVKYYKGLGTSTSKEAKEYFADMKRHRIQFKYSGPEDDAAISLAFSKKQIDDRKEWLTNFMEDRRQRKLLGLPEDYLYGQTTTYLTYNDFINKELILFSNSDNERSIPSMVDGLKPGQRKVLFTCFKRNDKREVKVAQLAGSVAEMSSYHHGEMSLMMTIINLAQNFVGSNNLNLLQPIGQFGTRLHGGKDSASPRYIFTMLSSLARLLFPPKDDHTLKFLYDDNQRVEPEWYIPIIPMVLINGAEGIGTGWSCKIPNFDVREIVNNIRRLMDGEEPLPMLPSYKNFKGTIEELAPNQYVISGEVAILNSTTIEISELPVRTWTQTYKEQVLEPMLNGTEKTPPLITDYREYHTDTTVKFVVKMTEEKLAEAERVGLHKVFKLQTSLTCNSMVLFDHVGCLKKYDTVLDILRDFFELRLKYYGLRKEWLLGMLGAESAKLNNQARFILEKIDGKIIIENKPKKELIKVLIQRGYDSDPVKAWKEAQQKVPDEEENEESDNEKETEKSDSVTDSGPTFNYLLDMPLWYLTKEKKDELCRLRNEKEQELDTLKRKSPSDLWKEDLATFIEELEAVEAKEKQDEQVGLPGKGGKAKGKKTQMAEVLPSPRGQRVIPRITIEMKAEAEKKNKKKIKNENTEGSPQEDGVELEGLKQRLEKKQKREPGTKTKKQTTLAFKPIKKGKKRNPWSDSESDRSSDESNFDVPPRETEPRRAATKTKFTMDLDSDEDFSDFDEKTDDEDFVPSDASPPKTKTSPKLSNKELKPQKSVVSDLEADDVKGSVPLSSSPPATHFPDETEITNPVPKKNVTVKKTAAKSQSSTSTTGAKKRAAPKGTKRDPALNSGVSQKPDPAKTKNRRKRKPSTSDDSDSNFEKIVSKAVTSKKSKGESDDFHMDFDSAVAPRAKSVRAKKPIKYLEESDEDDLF
Chain of Cellular tumor antigen p53 (Homo sapiens) (P04637 whole entry, looked up): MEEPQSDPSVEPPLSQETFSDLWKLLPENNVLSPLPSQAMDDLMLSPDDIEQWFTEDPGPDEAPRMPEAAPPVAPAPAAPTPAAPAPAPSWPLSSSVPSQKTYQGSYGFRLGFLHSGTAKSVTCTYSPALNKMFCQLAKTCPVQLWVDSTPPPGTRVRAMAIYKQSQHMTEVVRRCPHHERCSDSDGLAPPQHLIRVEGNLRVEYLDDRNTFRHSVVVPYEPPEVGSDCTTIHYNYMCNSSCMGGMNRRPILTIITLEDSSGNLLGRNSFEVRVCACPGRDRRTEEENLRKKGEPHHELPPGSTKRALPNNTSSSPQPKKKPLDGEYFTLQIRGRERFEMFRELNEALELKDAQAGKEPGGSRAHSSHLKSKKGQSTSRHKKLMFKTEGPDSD

## CCCN(CCC)c1nc2c(O)cc3c4ccccc4oc3c2c(=O)[nH]1
MCF7 [1]
  Activity: Active
[2]
  Activity: inactive
MDA-MB-231 [3]
  Activity: Active
[4]
  inhibition: Dose-dependent effect
MCF7 [5]
  inhibition of growth at 1 µM: 58%
MDA-MB-231 [6]
  inhibition of growth at 1 µM: 60%
[7]
  Activity: Non-toxic
MCF7 [8]
  IC50: 660 nM
MDA-MB-231 [9]
  IC50: 650 nM
[10]
  IC50: 33000 nM
MCF7 [11]
  Activity: Active
MDA-MB-231 [12]
  Activity: Active
MCF7 [13]
  Activity: Active
MDA-MB-231 [14]
  Activity: Active
[15]
  Activity: Non-toxic
MCF7 [16]
  Activity: Dose-dependent effect
MDA-MB-231 [17]
  Activity: Dose-dependent effect
[18]
  Activity: Non-toxic
[19]
  Activity: Dose-dependent effect
[20]
  Activity: Dose-dependent effect
[21]
  Activity: Active
[22]
  Activity: Active
MDA-MB-231 [23]
  Activity: inactive
[24]
  Activity: Active
[25]
  Activity: Active
[26]
  Activity: Active
[27]
  Activity: Active
[28]
  Activity: inactive
MCF7 [29]
  Activity: inactive
MCF7 [30]
  Activity: inactive
[31]
  Activity: Non-toxic
MCF7 [32]
  Activity: inactive
[33]
  Activity: Non-toxic
MDA-MB-231 [34]
  Activity: Active
MCF7 [35]
  Activity: inactive
MCF-7 TR1 [36]
  Activity: Active
MCF-7 TR1 [37]
  Activity: Active
[38]
  IC50: 1000 nM
[39]
  Activity: Active
[40]
  Activity: Active
[41]
  Activity: Active
[42]
  Activity: Active
MCF-7 TR1 [43]
  Activity: Active
MCF-7 TR1 [44]
  Activity: Active
[45]
  inhibition: inactive
[46]
  inhibition: inactive
Ishikawa
  IC50: 980 nM
HeLa
  IC50: 700 nM
HepG2
  IC50: 890 nM
[47]
  IC50: 1200 nM

## Cc1c2ccncc2c(C)c2c1[nH]c1ccccc12 [ELLIPTECINE]
MCF7 [8]
  IC50: 1250 nM
MDA-MB-231 [9]
  IC50: 1820 nM
[10]
  IC50: 1200 nM
[38]
  IC50: 1750 nM
[45]
  inhibition: Active
[46]
  inhibition: Active
Ishikawa
  IC50: 1500 nM
HeLa
  IC50: 1000 nM
HepG2
  IC50: 2900 nM
[47]
  IC50: 2000 nM
[48]
  inhibition: Active
[49]
  inhibition: Active
